Several values for one entry are separate records, joined by “and”; a condition that tells them apart may be missing. Identical values can stand only once.
Columns and labels:
Format in all cases: biochemical
hLPCAT2 = target: T1, hLPCAT2 (Homo sapiens, UniProt Q7L5N7); assay: lyso-PAFAT (acetyltransferase) activity assay, PAF product by LC-MS/MS; details: for IC50: 0, 0.2, 0.6, 2, 6 and 20 μM of each compound in triplicate, LC-MS/MS, read-out: IC50, product PAF, enzyme hLPCAT2; for percentage inhibition, product PAF, hLPCAT2: 20 μM compound, microsomal fractions of nonstimulated CHO-S-PAFR cells, n = 3, mean ± SEM; for selectivity for hLPCAT2 over hLPCAT1: from IC50 values of Table 1
T1 construct: expressed in transfected cells; host or cells: CHO-S-PAFR cells (microsomal fraction), with or without mcPAF stimulation
T1 sequence (Q7L5N7 1-544): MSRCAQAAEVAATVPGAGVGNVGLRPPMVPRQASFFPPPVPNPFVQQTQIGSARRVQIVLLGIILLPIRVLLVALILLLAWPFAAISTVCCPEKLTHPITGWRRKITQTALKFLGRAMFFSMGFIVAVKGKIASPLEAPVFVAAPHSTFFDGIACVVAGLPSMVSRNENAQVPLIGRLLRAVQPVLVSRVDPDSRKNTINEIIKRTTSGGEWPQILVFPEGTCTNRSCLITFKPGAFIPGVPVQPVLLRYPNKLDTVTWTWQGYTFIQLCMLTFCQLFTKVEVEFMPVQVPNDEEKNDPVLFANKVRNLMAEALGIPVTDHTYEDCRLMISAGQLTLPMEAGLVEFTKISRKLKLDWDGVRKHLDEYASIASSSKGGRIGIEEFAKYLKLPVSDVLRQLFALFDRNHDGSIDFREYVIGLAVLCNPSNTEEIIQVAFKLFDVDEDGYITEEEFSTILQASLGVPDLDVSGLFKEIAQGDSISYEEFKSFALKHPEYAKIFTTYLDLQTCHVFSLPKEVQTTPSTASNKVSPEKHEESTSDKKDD
Experimental: (§1) Microsomal protein fractions (0.5 μg) supplemented with the indicated compound concentrations were added to the reaction mixture containing 100 mM Tris-HCl (pH 7.4), 1 μM CaCl2, 0.015% Tween-20, and two substrates. For acetyltransferase activity, the substrates were 1 mM acetyl-CoA and 5 μM d4-lyso-PAF; for the acyltransferase activity of LPCAT1 or LPCAT2, the substrates were, respectively, palmitoyl-CoA and d31-16:0 LPC or arachidonoyl-CoA and d4-lyso-PAF (all 5 μM). Each lysophospholipid contained fatty acid at the sn-1 position. After incubation at 37°C for 5 min, the reactions were stopped by adding 300 μl methanol containing 17:0 LPC or 14:0/14:0 PC as an internal standard. Deuterium-labeled products were analyzed by LC-MS/MS (Waters, Milford, MA and Thermo Scientific, Waltham, MA). […]
Steps 2 to 5 screening: 96-well plate assay
Acetyltransferase and acyltransferase assays were developed in 96-well plates. The microsomal hLPCAT2, obtained from mcPAF-stimulated CHO-S-PAFR cells was used in steps 1, 2, and 5. The microsomal hLPCAT1 obtained from unstimulated CHO-S cells was used in steps 3 to 5. Each well of the 96-well plates contained 30 µl of 15 µg/ml protein, 600 nl of 2 mM compound, 30 µl buffer C, and two substrates (Fig. 1B and C).
Substrate concentrations were as follows: acetyl-CoA, 250 or 1000 µM acetyl-CoA; […]
arachidonoyl-CoA, 5 µM; palmitoyl-CoA, 5 µM; d4-lyso-PAF, 5 µM; and d31-LPC, 5 µM.
For step 5, compound concentrations were 0, 0.167, 0.67, 2, 6.7, and 20 µM. The deuterium-labeled products were measured by LC-MS/MS. Percentage inhibition (steps 2 to 4) or IC50 (step 5) was used as the hit criterion.
Step 6 screening: BSA assay
The acetyltransferase assay was performed with 20 µM of each compound and microsomal hLPCAT2 from step 1. The assay mixture contained 0.4% BSA and two substrates for lyso-PAFAT activity: 1 mM acetyl-CoA and 5 µM d4-lyso-PAF. Percentage inhibition values were determined.
(§2) Step 7 screening: species-specific differences
(§3) To evaluate the effects on the activity of mouse or human LPCAT1 and LPCAT2, each microsomal fraction was obtained using CHO-S-PAFR cells with or without mcPAF (200 nM) stimulation for 5 min. Acetyltransferase and acyltransferase assays were performed with 20 µM of each compound. Percentage inhibition was calculated in each

mLPCAT1 = target: T2, mLPCAT1 (Mus musculus, UniProt Q3TFD2); assay: lyso-PAFAT (acetyltransferase) activity assay, PAF product; details: 20 μM compound; microsomal fractions of nonstimulated CHO-S-PAFR cells; n = 3, mean ± SEM
T2 construct: expressed in transfected cells; host or cells: CHO-S-PAFR cells, microsomal fraction
T2 sequence (Q3TFD2 1-534): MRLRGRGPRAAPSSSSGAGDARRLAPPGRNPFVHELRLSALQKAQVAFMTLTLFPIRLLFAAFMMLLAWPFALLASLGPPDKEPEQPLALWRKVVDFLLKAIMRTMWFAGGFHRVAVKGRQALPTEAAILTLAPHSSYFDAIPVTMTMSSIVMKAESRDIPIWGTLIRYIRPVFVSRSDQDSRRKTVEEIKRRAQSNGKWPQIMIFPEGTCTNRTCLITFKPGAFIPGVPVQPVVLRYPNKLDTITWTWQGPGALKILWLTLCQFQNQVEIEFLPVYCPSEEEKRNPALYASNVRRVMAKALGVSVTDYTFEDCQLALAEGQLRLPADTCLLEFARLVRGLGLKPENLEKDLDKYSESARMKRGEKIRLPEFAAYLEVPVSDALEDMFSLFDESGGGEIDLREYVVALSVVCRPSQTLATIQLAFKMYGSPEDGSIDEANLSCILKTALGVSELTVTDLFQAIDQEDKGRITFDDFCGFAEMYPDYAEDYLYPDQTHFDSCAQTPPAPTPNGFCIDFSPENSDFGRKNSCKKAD
Experimental: as §1
(§4) arachidonoyl-CoA, 5 µM; palmitoyl-CoA, 5 µM; d4-lyso-PAF, 5 µM; and d31-LPC, 5 µM. […]
(§5) deuterium-labeled products were measured by LC-MS/MS. […]
as §2, §3

mLPCAT2 = target: T3, mLPCAT2 (Mus musculus, UniProt Q8BYI6); assay: as above; details: 20 μM compound; microsomal fractions of nonstimulated CHO-S-PAFR cells; n = 3, mean ± SEM
T3 construct: expressed in transfected cells; host or cells: CHO-S-PAFR cells, microsomal fraction, with or without mcPAF stimulation
T3 sequence (Q8BYI6 1-544): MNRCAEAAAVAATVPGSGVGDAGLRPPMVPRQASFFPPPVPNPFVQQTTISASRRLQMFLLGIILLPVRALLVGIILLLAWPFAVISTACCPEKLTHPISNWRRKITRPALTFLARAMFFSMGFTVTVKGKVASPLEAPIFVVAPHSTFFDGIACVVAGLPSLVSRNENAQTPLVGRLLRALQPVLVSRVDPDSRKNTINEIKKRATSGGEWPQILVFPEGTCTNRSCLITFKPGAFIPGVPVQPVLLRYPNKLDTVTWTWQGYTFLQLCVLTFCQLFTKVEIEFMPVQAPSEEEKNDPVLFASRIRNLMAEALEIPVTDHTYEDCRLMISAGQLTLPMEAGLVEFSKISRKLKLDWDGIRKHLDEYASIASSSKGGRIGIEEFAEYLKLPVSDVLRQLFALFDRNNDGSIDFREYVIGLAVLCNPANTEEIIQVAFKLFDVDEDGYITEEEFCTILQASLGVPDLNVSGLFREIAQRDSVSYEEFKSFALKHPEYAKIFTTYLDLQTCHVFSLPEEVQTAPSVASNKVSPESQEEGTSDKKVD
Experimental: as §1, §4, §5, §2, §3

CCCCOC(=O)c1ccc(N2C(=O)C(Cl)=C(Cl)C2=O)cc1 [TSI-11, butyl 4-(3,4-dichloro-2,5-dioxopyrrol-1-yl)benzoate]
IC50 (hLPCAT2): ~100 nM and 140 nM | percentage inhibition, product PAF, hLPCAT2 (hLPCAT2): 99.4 ± 0.2 percentage | selectivity for hLPCAT2 over hLPCAT1 (hLPCAT2): approximately 10 fold | percentage inhibition, product PAF, mLPCAT1 (mLPCAT1): 89.3 ± 1.1 percentage | percentage inhibition, product PAF, mLPCAT2 (mLPCAT2): 98.9 ± 0.3 percentage

O=C1C(Cl)=C(N2CCOCC2)C(=O)N1c1ccc(Oc2ccccc2)cc1 [TSI-02, 3-chloro-4-morpholin-4-yl-1-(4-phenoxyphenyl)pyrrole-2,5-dione]
IC50 (hLPCAT2): 2170 nM

CC(C)OC(=O)c1ccc(N2C(=O)C(Cl)=C(Nc3ccccc3O)C2=O)cc1 [TSI-07]
IC50 (hLPCAT2): 5500 nM | percentage inhibition, product PAF, hLPCAT2 (hLPCAT2): 90.8 ± 3.0 percentage | selectivity for hLPCAT2 over hLPCAT1 (hLPCAT2): approximately 10 fold | percentage inhibition, product PAF, mLPCAT1 (mLPCAT1): 33.6 ± 6.1 percentage | percentage inhibition, product PAF, mLPCAT2 (mLPCAT2): 84.1 ± 6.4 percentage

CC(C)OC(=O)c1ccc(N2C(=O)C(Cl)=C(Cl)C2=O)cc1 [TSI-01, propan-2-yl 4-(3,4-dichloro-2,5-dioxopyrrol-1-yl)benzoate]
IC50 (hLPCAT2): 470 nM | percentage inhibition, product PAF, hLPCAT2 (hLPCAT2): 99.8 ± 0.1 percentage | selectivity for hLPCAT2 over hLPCAT1 (hLPCAT2): approximately 10 fold | percentage inhibition, product PAF, mLPCAT1 (mLPCAT1): 89.2 ± 1.8 percentage | percentage inhibition, product PAF, mLPCAT2 (mLPCAT2): 99.2 ± 0.2 percentage

CCCOC(=O)c1ccc(N2C(=O)C(Cl)=C(Cl)C2=O)cc1 [TSI-10]
IC50 (hLPCAT2): ~100 nM and 130 nM | percentage inhibition, product PAF, hLPCAT2 (hLPCAT2): 99.5 ± 0.2 percentage | selectivity for hLPCAT2 over hLPCAT1 (hLPCAT2): approximately 10 fold | percentage inhibition, product PAF, mLPCAT1 (mLPCAT1): 89.6 ± 1.1 percentage | percentage inhibition, product PAF, mLPCAT2 (mLPCAT2): 99.1 ± 0.2 percentage
